Results from ChEMBL document CHEMBL5150077, “Identification of TUL01101: A Novel Potent and Selective JAK1 Inhibitor for the Treatment of Rheumatoid Arthritis” (J Med Chem, 2022).

How the values were obtained:
[1] = target: Ephrin type-A receptor 2 (Homo sapiens) (UniProt P29317); assay: Inhibition of human EPHA2 assessed as residual activity at 30 uM relative to control
[2] = target: Proto-oncogene tyrosine-protein kinase Src (Homo sapiens) (UniProt P12931); assay: Inhibition of human Src (1 to 530 residues) assessed as residual activity at 30 uM relative to control
Rattus norvegicus [3] = assay: Antiarthritic activity in adjuvant-induced arthritis rat model assessed as clinical score at 3 mg/kg, po administered twice a day for 14 days starting from day 13 to 27 post immunization and measured every 3 days a week; assay type: functional; conditions: time 14 day
[4] = target: CDK2/Cyclin A2 (Homo sapiens) (UniProt P24941+P20248); assay: Inhibition of human CDK2/Cyclin A assessed as residual activity at 30 uM relative to control; assay type: protein-complex assay
[5] = target: Hepatocyte growth factor receptor (Homo sapiens) (UniProt P08581); assay: Inhibition of human MET assessed as residual activity at 30 uM relative to control
[6] = AUC in beagle dog at 5 mg/kg, po measured for 24 hrs by LC-MS/MS analysis; assay type: ADME, organism-based, Canis lupus familiaris; parameters: time 24 hrs, dose 5 mg/kg, route po; conditions: in vivo
[7] = target: Epidermal growth factor receptor (Homo sapiens) (UniProt P00533); assay: Inhibition of human EGFR assessed as residual activity at 30 uM relative to control
Mus musculus [8] = assay: (§1) Antiarthritic activity in collagen-induced rheumatoid arthritis DBA/1 mouse model assessed as inhibition rate at 15 mg/kg, po BID administered for 14 days starting from 7 days before immunization to 21 days after immunization and measured on day 41 post immunization; assay type: functional; conditions: DBA/1, 336 h, time 14 day
[9] = target: 5'-AMP-activated protein kinase catalytic subunit alpha-1 (Homo sapiens) (UniProt Q13131); assay: Inhibition of human AMPKalpha1 assessed as residual activity at 30 uM relative to control
5'-AMP-activated protein kinase catalytic subunit alpha-1 (Homo sapiens), sequence (Q13131 whole entry, looked up): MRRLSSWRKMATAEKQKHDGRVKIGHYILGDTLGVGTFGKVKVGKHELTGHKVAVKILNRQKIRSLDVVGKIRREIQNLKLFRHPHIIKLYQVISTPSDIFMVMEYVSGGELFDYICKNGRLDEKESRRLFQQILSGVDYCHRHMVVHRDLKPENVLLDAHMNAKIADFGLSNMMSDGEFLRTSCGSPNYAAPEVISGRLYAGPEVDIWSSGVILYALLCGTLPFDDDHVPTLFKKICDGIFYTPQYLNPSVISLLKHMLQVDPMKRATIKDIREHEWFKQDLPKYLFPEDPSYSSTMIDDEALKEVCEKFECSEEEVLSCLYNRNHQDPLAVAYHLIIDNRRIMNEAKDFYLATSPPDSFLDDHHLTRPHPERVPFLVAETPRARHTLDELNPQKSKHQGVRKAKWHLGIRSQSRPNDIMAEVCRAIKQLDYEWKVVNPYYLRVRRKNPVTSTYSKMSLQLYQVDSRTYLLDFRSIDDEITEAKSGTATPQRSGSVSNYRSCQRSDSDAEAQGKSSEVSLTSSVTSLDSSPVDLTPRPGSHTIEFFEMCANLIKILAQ

[10] = target: Serine/threonine-protein kinase Chk1 (Homo sapiens) (UniProt O14757); assay: Inhibition of human CHK1 assessed as residual activity at 30 uM relative to control
[11] = target: Insulin-like growth factor 1 receptor (Homo sapiens) (UniProt P08069); assay: Inhibition of human IGF1R assessed as residual activity at 30 uM relative to control
in vivo [12] = conditions: beagle, dog, po, 5 mg/kg
[13] = target: Tyrosine-protein kinase Lck (Homo sapiens) (UniProt P06239); assay: Inhibition of human LCK assessed as residual activity at 30 uM relative to control
[14] = target: Mitogen-activated protein kinase 8 (Homo sapiens) (UniProt P45983); assay: Inhibition of human JNK1-alpha1 assessed as residual activity at 30 uM relative to control
[15] = target: Cytoplasmic tyrosine-protein kinase BMX (Homo sapiens) (UniProt P51813); assay: Inhibition of human BMX assessed as residual activity at 30 uM relative to control
Cytoplasmic tyrosine-protein kinase BMX (Homo sapiens), sequence (P51813 whole entry): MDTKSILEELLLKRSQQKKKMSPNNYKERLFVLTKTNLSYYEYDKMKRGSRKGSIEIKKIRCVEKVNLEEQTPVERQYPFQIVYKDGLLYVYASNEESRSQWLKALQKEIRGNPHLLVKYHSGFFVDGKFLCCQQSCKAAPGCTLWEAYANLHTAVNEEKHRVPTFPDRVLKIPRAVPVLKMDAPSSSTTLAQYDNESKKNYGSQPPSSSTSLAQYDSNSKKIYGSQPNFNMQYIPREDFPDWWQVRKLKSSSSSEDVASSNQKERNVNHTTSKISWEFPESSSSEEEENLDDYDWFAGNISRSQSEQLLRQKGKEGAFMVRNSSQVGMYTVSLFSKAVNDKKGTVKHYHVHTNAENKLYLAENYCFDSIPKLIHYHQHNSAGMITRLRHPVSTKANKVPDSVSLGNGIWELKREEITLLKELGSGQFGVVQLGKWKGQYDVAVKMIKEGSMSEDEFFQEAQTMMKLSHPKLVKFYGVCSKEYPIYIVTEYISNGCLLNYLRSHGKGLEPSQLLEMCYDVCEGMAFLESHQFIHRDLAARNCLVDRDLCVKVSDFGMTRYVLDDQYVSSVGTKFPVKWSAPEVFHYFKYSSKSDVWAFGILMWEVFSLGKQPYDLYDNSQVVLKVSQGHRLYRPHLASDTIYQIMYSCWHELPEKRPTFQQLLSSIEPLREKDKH

[16] = target: MAP kinase-activated protein kinase 2 (Homo sapiens) (UniProt P49137); assay: Inhibition of human MAPKAPK2 assessed as residual activity at 30 uM relative to control
[17] = target: Calcium/calmodulin-dependent protein kinase type II subunit alpha (Homo sapiens) (UniProt Q9UQM7); assay: Inhibition of human CAMKIIalpha assessed as residual activity at 30 uM relative to control
Rattus norvegicus [18] = assay: Antiarthritic activity in adjuvant-induced arthritis rat model assessed as clinical score at 30 mg/kg, po administered twice a day for 14 days starting from day 13 to 27 post immunization and measured every 3 days a week; assay type: functional; conditions: time 14 day
in vivo [19] = conditions: beagle, dog, po, 5 mg/kg; remark: listed apart in the source
[20] = target: Mitogen-activated protein kinase 1 (Homo sapiens) (UniProt P28482); assay: Inhibition of human MAPK1 assessed as residual activity at 30 uM relative to control
[21] = Toxicity in rat assessed as reduction in food intake at 10 mg/kg/day, po administered via gavage once a day pretreated for 9 weeks prior to co-cage and measured on day 84; assay type: organism-based; parameters: scale not given: the % may be the effect or the level left; conditions: in vivo, 2016 h, time 84 day
[22] = AUC in Sprague-Dawley rat at 10 mg/kg, po measured for 24 hrs by LC-MS/MS analysis; assay type: ADME, organism-based; parameters: time 24 hrs, dose 10 mg/kg, route po; conditions: in vivo
[23] = target: Tyrosine-protein kinase ITK/TSK (Homo sapiens) (UniProt Q08881); assay: Inhibition of human ITK assessed as residual activity at 30 uM relative to control
in vivo [24] = conditions: Sprague-Dawley, rat, po, 10 mg/kg
[25] = target: Vascular endothelial growth factor receptor 2 (Homo sapiens) (UniProt P35968); assay: Inhibition of human KDR assessed as residual activity at 30 uM relative to control
Vascular endothelial growth factor receptor 2 (Homo sapiens), sequence (P35968 whole entry): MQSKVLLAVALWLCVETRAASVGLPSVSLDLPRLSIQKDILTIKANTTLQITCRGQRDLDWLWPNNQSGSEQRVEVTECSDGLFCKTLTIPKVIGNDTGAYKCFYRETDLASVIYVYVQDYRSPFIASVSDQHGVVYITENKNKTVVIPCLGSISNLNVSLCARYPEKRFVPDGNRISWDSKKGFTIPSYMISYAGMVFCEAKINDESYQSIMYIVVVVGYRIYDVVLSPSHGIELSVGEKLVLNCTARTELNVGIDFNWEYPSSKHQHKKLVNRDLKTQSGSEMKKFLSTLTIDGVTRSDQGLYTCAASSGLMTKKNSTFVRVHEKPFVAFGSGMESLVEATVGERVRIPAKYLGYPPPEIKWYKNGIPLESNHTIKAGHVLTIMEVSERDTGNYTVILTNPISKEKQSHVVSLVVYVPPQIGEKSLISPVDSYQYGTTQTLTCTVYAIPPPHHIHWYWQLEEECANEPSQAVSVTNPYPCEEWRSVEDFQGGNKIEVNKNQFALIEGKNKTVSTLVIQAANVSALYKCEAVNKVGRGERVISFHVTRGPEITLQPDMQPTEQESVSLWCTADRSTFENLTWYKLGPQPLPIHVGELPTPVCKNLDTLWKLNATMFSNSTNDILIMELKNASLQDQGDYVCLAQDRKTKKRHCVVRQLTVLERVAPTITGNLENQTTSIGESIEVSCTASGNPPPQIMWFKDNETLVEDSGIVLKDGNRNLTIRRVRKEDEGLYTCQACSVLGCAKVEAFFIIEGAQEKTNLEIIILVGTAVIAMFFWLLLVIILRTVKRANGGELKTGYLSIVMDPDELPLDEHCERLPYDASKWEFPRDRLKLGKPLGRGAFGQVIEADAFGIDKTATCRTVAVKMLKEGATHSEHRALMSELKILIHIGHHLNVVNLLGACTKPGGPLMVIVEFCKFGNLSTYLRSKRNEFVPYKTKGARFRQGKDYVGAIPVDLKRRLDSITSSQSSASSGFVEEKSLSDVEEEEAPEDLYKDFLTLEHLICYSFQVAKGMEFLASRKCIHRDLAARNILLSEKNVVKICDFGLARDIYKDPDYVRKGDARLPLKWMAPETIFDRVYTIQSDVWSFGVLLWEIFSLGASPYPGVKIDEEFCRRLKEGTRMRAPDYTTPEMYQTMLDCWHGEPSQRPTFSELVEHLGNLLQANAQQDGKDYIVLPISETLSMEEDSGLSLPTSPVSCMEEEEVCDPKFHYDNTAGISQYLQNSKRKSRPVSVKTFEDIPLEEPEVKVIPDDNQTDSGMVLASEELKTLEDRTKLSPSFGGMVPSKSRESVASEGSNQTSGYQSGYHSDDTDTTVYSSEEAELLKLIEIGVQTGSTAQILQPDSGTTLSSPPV

in vivo [26] = conditions: Sprague-Dawley, rat, po, 10 mg/kg; remark: listed apart in the source
[27] = target: Serine/threonine-protein kinase PAK 2 (Homo sapiens) (UniProt Q13177); assay: Inhibition of human PAK2 assessed as residual activity at 30 uM relative to control
Serine/threonine-protein kinase PAK 2 (Homo sapiens), sequence (Q13177 whole entry): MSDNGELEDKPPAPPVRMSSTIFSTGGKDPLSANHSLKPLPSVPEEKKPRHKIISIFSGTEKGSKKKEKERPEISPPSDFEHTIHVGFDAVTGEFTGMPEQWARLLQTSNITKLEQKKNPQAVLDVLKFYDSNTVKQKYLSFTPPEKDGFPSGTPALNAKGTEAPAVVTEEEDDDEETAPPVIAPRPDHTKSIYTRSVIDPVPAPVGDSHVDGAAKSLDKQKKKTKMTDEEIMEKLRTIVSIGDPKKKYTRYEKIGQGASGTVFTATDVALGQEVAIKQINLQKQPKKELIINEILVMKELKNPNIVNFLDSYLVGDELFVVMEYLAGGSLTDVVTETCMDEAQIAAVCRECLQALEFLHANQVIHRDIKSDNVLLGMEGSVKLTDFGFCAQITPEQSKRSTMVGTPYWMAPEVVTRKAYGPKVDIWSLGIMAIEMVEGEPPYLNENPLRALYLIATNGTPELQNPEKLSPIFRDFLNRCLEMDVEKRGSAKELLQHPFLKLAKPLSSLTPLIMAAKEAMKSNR

[28] = Clearance in Sprague-Dawley rat at 1 mg/kg, iv measured for 24 hrs by LC-MS/MS analysis; assay type: ADME, organism-based; conditions: in vivo
[29] = Volume of distribution at steady state in Sprague-Dawley rat at 1 mg/kg, iv measured for 24 hrs by LC-MS/MS analysis; assay type: ADME, organism-based; conditions: in vivo, read-out: Vdss
[30] = target: Casein kinase I (Homo sapiens) (UniProt Q9HCP0+P78368+P48730+P49674+P48729); assay: Inhibition of CK1 (unknown origin) assessed as residual activity at 30 uM relative to control; assay type: protein assay
[31] = target: Inhibitor of nuclear factor kappa-B kinase subunit beta (Homo sapiens) (UniProt O14920); assay: Inhibition of human IKKbeta assessed as residual activity at 30 uM relative to control
[32] = target: Serine/threonine-protein kinase mTOR (Homo sapiens) (UniProt P42345); assay: Inhibition of human mTOR assessed as residual activity at 30 uM relative to control
[33] = target: RAC-alpha serine/threonine-protein kinase (Homo sapiens) (UniProt P31749); assay: Inhibition of human PKBalpha assessed as residual activity at 30 uM relative to control
[34] = target: Receptor-type tyrosine-protein kinase FLT3 (Homo sapiens) (UniProt P36888); assay: Inhibition of human FLT3 assessed as residual activity at 30 uM relative to control
Receptor-type tyrosine-protein kinase FLT3 (Homo sapiens), sequence (P36888 whole entry): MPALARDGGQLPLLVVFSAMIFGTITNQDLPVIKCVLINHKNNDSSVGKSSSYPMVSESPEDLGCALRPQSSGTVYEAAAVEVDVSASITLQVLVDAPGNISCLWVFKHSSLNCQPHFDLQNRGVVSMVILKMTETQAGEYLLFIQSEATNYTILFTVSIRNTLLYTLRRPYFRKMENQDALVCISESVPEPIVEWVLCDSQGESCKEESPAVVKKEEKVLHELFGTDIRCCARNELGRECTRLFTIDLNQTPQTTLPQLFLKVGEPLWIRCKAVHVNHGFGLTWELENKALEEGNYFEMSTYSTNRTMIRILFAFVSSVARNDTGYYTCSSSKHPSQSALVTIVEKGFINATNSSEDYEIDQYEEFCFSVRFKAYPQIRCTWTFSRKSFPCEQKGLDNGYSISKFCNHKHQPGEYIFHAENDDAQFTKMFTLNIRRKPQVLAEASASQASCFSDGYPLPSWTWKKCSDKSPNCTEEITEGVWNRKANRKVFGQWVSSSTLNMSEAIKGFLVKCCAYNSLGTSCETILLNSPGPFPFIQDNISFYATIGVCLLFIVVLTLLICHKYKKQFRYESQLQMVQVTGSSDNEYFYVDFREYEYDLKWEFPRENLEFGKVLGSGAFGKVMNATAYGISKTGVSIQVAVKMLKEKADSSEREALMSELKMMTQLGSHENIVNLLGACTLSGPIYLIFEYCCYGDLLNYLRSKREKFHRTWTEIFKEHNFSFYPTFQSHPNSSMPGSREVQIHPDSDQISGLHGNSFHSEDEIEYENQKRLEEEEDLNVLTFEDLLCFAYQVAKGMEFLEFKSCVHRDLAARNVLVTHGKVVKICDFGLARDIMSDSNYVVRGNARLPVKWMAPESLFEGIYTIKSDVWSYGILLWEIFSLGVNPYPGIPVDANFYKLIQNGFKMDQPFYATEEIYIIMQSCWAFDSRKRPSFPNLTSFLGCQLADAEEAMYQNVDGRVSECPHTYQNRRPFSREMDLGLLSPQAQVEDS

[35] = target: Tyrosine-protein kinase Blk (Homo sapiens) (UniProt P51451); assay: Inhibition of human BLK assessed as residual activity at 30 uM relative to control
Mus musculus [36] = assay: as §1, with “assessed as reduction in clinical score at 15” for “assessed as inhibition rate at 15”, “post immunization (reference value: 5.75)” for “post immunization”; assay type: functional; conditions: time 14 day
Homo sapiens = species on record: Homo sapiens; assay: Inhibition of human CDK1/Cyclin B assessed as residual activity at 30 uM relative to control
Mus musculus [37] = assay: Antiarthritic activity in collagen-induced rheumatoid arthritis DBA/1 mouse model assessed as reduction in incidence rate at 15 mg/kg, po BID administered for 14 days starting from 7 days before immunization to 21 days after immunization and measured on day 41 post immunization; assay type: functional; parameters: scale not given: the % may be the effect or the level left; conditions: time 14 day

Ephrin type-A receptor 2 (Homo sapiens), sequence (P29317 whole entry, the tested form may be a part): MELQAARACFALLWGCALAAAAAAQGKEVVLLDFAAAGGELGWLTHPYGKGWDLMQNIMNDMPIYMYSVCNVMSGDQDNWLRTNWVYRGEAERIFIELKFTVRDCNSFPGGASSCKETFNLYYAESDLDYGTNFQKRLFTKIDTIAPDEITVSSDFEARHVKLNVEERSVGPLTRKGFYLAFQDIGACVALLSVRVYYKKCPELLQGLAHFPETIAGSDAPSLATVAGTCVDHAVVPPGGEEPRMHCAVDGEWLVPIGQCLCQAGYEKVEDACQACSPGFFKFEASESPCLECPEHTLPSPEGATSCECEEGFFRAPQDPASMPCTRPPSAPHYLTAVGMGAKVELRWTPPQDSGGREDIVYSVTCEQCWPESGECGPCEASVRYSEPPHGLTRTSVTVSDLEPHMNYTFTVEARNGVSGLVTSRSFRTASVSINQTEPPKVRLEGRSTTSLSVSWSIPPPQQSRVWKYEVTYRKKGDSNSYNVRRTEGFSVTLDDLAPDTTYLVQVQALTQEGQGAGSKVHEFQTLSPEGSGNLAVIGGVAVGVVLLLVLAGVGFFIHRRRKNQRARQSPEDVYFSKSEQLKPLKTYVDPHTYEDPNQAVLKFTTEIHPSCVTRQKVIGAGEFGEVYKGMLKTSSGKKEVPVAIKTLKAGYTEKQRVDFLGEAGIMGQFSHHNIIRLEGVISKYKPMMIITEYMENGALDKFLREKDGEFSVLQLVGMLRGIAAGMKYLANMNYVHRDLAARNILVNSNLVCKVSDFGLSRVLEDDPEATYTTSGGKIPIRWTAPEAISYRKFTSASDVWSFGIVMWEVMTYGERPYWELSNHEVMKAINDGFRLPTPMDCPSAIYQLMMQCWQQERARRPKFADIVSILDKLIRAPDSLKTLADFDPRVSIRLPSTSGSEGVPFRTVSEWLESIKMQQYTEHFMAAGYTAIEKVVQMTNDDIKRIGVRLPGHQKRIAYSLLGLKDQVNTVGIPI

`O=C(Nc1nc2cccc(C3CCC4(CC3)CN(C(=O)[C@@H]3CC3(F)F)C4)n2n1)C1CC1` showed an Activity [1] of 102%, an Activity [2] of 86% and an Activity (Rattus norvegicus [3]) of 3.9. For the same compound, the Activity [4] was 66%, the Activity [5] was 90% and the AUC at 24 h [6] was 16700 ng·h/mL. The Activity [7] was 94%, the inhibition in vivo at 15 mg/kg (Mus musculus [8]) was 59.9% and the Activity [9] was 110%. For the same compound, the Activity [10] was 99%, the Activity [11] was 129% and the bioavailability at 24 h (in vivo [12]) was 106%. It also gave an Activity [13] of 74%, an Activity [14] of 109% and an Activity [15] of 99%. For the same compound, the Activity [16] was 112%, the Activity [17] was 88% and the Activity (Rattus norvegicus [18]) was 2.7. It also gave a Cmax at 24 h (in vivo [19]) of 2750 ng/mL, an Activity [20] of 104% and an Activity [21] of 7.8%. For the same compound, the AUC at 24 h [22] was 19600 ng·h/mL, the Activity [23] was 87% and the Cmax at 24 h (in vivo [24]) was 4960 ng/mL. For the same compound, the Activity [25] was 31%, the bioavailability at 24 h (in vivo [26]) was 121% and the Activity [27] was 93%. The clearance [28] was 10.5 mL/min/kg, the Vd [29] was 1.81 L/kg and the Activity [30] was 102%. The Activity [31] was 97%, the Activity [32] was 104% and the Activity [33] was 104%. The Activity [34] was 34%, the Activity [35] was 81% and the Activity (Mus musculus [36]) was 1.5. The Activity (Homo sapiens) was 109%.
With `O=C(Nc1nc2cccc(C3CCC4(CC3)CCN(C(=O)[C@@H]3CC3(F)F)CC4)n2n1)C1CC1` the Activity (Mus musculus [37]) was 100%.
